Experimental data as given in patent US20220372014A1, “NEUROPROTECTIVE COMPOUNDS AND METHODS OF USE THEREOF” (The Johns Hopkins University, priority 2019, published 2022).

Experiments:
MIF = target: T1, MIF (Homo sapiens, UniProt P14174); test: Nuclease assay of Example 3 (MIF inhibitory activity, Table 4); format: biochemical; set-up: (%) inhibition of MIF nuclease activity: concentration or dose not given beside the values; details: nuclease assay of Example 3
T1 sequence (P14174 1-115): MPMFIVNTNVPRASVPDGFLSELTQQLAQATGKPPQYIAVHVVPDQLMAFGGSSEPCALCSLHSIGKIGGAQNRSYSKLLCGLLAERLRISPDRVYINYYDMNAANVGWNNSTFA
Procedure: A rapafucin library was synthesized as described in WO2017/136708 and Guo et al. (2018) Nat. Chem. 11:254-63. The hybrid macrocyclic library consisted of 45,000 compounds in pools of 15 individual compounds. The library compounds were screened for MIF inhibitory activity using a nuclease assay as detailed in FIG. 1 and below.
Nuclease assay: Human genomic DNA (200 ng/reaction, Promega), pcDNA (200 ng/reaction) or PS^30 and its related and non-related substrates (1 μM) was incubated with wild type MIF or its variants at a final concentration of 0.25-8 μM as indicated in 10 mM Tris-HCl buffer (pH 7.0) containing 10 mM MgCl2 and 1 mM DTT or specific buffer as indicated, for 1 h (with pcDNA and small DNA substrates) or 4 h (with human genomic DNA) at 37° C. The reaction was terminated with loading buffer containing 10 mM EDTA and incubation on ice. The human genomic DNA samples were immediately separated on a 1.2% pulse field certified agarose in 0.5×TBE buffer with initial switch time of 1.5 s and a final switch time of 3.5 s for 12 h at 6 V/cm. pcDNA samples were determined by 1% agarose gel. Small DNA substrates were separated on 15% or 25% TBE-urea polyacrylamide (PAGE) gel or 20% TBE PAGE gel. Then gel was stained with 0.5 μg/ml Ethidium Bromide (EtBr) followed by electrophoretic transfer to nylon membrane. Then, Biotin-labeled DNA is further detected by chemiluminescence using Chemiluminescent Nucleic Acid Detection Module (Thermo Scientific).
Structure-activity relationship (SAR) analysis was then conducted on the compounds identified as having MIF inhibitory activity. Compounds having the structure of Formula (I) were then synthesized as shown in Example 1 and tested for MIF inhibitory activity using the nuclease assay described herein and neuronal protection via a cell death assay as detailed below.

[1] = tested on: HeLa cells or neuronal cells; test: Cell death assay of Example 3 (MNNG, alamarBlue; protection against parthanatos, Table 4); format: cell-based; details: 1 μM test compound, MNNG-induced cell death, alamarBlue
Procedure: Cell death assay: 200 μl of cells (HeLa cells or neuronal cells) culture (1×10^4 cells/well) were plated into the wells of a sterile 96-well cell culture plate. The cells were incubated for 18 hours at 37° C. The medium was removed and changed with 100 μl/well of 1 μM test compound. Incubate for 1 hours at 37° C. Ten μl of 500 μM MNNG (N-Methyl-N′-nitro-N-nitrosoguanidine) was added to each well. The medium was aspirated well and incubated for 15 min at 37° C. The cells were washed with the fresh medium. The medium was changed with 1 μM of test compound and incubated for 18 hours at 37° C. 10 μl/well of alamarBlue reagent was added directly to the well and incubated for 1 to 4 hours at 37° C. Fluorescence was measured using a fluorescence excitation wavelength of 560 nm and emission at 590 nm. The percentage of cell death was determined as the ratio of live to dead cells compared with the percentage of cell death in control wells to account for cell death attributed to mechanical stimulation of the cultures.

| SMILES | (%) inhibition of MIF nuclease activity (MIF) [%] | (%) inhibition of cell death [1] [%] |
| --- | --- | --- |
| COc1cccc(CC[C@H]2OC(=O)[C@@H]3CCCCN3C(=O)C(=O)C(C)(C)COC(=O)C=CCCN(C)C(=O)[C@@H]3CCCN3C(=O)[C@H](COC(C)(C)C)N(C)C(=O)C(c3ccccc3)NC(=O)[C@H](C)N(C)C(=O)COc3cccc2c3)c1 (stereo partly shown) [compound 150] | 10.7 | 50.8 |
| COc1ccc(CC[C@H]2OC(=O)[C@@H]3CCCCN3C(=O)C(=O)C(C)(C)COC(=O)C=CCCN(C)C(=O)CNC(=O)[C@H](COC(C)(C)C)N(C)C(=O)C(c3ccccc3)NC(=O)[C@H](C)N(C)C(=O)COc3cccc2c3)cc1OC (stereo partly shown) [compound 46] | 21.7 | 52.5 |
| COc1ccc(CC[C@H]2OC(=O)[C@@H]3CCCCN3C(=O)C(=O)C(C)(C)COC(=O)C=CCCN(C)C(=O)[C@H](CC(C)C)NC(=O)[C@H](COC(C)(C)C)N(C)C(=O)C(c3ccccc3)NC(=O)CN(C)C(=O)COc3cccc2c3)cc1OC (stereo partly shown) [compound 36] | 18.5 | 51.0 |
| COc1ccc(CC[C@H]2OC(=O)[C@@H]3CCCCN3C(=O)C(=O)C(C)(C)COC(=O)C=CCCN(C)C(=O)[C@H](Cc3ccc4ccccc4c3)NC(=O)[C@H](COC(C)(C)C)N(C)C(=O)[C@H](Cc3ccc4ccccc4c3)NC(=O)[C@H](C)N(C)C(=O)COc3cccc2c3)cc1OC [compound 28] | 66.6 | 69.6 |
| COCC[C@@H]1NC(=O)[C@H](COC(C)(C)C)N(C)C(=O)C(c2ccccc2)NC(=O)CN(C)C(=O)COc2cccc(c2)[C@@H](CCc2ccc(OC)c(OC)c2)OC(=O)[C@@H]2CCCCN2C(=O)C(=O)C(C)(C)COC(=O)C=CCCN(C)C1=O (stereo partly shown) [compound 35] | 21.5 | 56.3 |
| COc1ccc(CC[C@H]2OC(=O)[C@@H]3CCCCN3C(=O)C(=O)C(C)(C)COC(=O)C=CCCN(C)C(=O)[C@@H]3CCCN3C(=O)[C@H](COC(C)(C)C)N(C)C(=O)C(c3ccccc3)NC(=O)[C@H](C(C)CC(C)(C)C)N(C)C(=O)COc3cccc2c3)cc1OC (stereo partly shown) [compound 147] | −4.7 | 46.2 |
| COc1ccc(CC[C@H]2OC(=O)[C@@H]3CCCCN3C(=O)C(=O)C(C)(C)COC(=O)C=CCCN(C)C(=O)[C@H]3CCCN3C(=O)[C@H](COC(C)(C)C)N(C)C(=O)C(c3ccccc3)NC(=O)[C@H](C)N(C)C(=O)COc3cccc2c3)cc1OC (stereo partly shown) [compound 91] | 25.8 | 62.7 |
| COc1ccc(CC[C@H]2OC(=O)[C@@H]3CCCCN3C(=O)C(=O)C(C)(C)COC(=O)C=CCCN(C)C(=O)CNC(=O)[C@H](COC(C)(C)C)N(C)C(=O)[C@@H](CC(C)C)NC(=O)CN(C)C(=O)COc3cccc2c3)cc1OC [compound 1] | 25.3 | 43.6 |
| C=CC(=O)OCC(C)(C)C(=O)C(=O)N1CCCC[C@H]1C(=O)O[C@H](CCc1ccc(OC)c(OC)c1)c1cncc(OCC(=O)N(C)[C@@H](C)C(=O)NC(C(=O)N(C)[C@@H](COC(C)(C)C)C(=O)N2CCC[C@H]2C(=O)N(C)CC/C=C\CCO)c2ccccc2)c1 (stereo partly shown) [compound 129] | 29.5 | 43.0 |
| COc1ccc(CC[C@H]2OC(=O)[C@@H]3CCCCN3C(=O)C(=O)C(C)(C)COC(=O)C=CCCN(C)C(=O)[C@@H]3CCCN3C(=O)[C@H](COC(C)(C)C)N(C)C(=O)[C@H](Cc3ccccc3)N(C)C(=O)[C@H](C)NC(=O)COc3cccc2c3)cc1OC [compound 138] | −4.8 | 47.0 |
| COc1ccc(CC[C@H]2OC(=O)[C@@H]3CCCCN3C(=O)C(=O)C(C)(C)COC(=O)C=CCCN(C)C(=O)[C@H](Cc3ccccc3)NC(=O)[C@H](Cc3ccccc3)N(C)C(=O)[C@@H](C)NC(=O)CN(C)C(=O)COc3cccc2c3)cc1OC [compound 68] | 44.0 | 58.0 |
| COc1ccc(CC[C@H]2OC(=O)[C@@H]3CCCCN3C(=O)C(=O)C(C)(C)COC(=O)C=CCCN(C)C(=O)[C@@H](Cc3ccccc3)NC(=O)[C@H](COC(C)(C)C)N(C)C(=O)[C@@H](CC(C)C)NC(=O)CN(C)C(=O)COc3cccc2c3)cc1OC [compound 9] | 16.5 | 57.4 |
| CCC[C@@H]1NC(=O)[C@H](COC(C)(C)C)N(C)C(=O)C(c2ccccc2)NC(=O)[C@H](C)N(C)C(=O)COc2cccc(c2)[C@@H](CCc2ccc(OC)c(OC)c2)OC(=O)[C@@H]2CCCCN2C(=O)C(=O)C(C)(C)COC(=O)C=CCCN(C)C1=O (stereo partly shown) [compound 49] | 14.7 | 60.0 |
| COc1ccc(CC[C@H]2OC(=O)[C@@H]3CCCCN3C(=O)C(=O)C(C)(C)COC(=O)C=CCCN(C)C(=O)[C@@H](Cc3ccccc3)NC(=O)[C@H](COC(C)(C)C)N(C)C(=O)C(c3ccccc3)NC(=O)[C@H](C)N(C)C(=O)COc3cccc2c3)cc1OC (stereo partly shown) [compound 54] | 15.9 | 56.0 |
| COc1ccc(CC[C@H]2OC(=O)[C@@H]3CCCCN3C(=O)C(=O)C(C)(C)COC(=O)C=CCCN(C)C(=O)[C@H](Cc3ccccc3)NC(=O)[C@H](COC(C)(C)C)N(C)C(=O)[C@@H](CC(C)C)NC(=O)CN(C)C(=O)COc3cccc2c3)cc1OC [compound 8] | 31.3 | 61.6 |
| CCC[C@@H]1NC(=O)[C@H](COC(C)(C)C)N(C)C(=O)[C@@H](Cc2ccc3ccccc3c2)NC(=O)[C@H](C)N(C)C(=O)COc2cccc(c2)[C@@H](CCc2ccc(OC)c(OC)c2)OC(=O)[C@@H]2CCCCN2C(=O)C(=O)C(C)(C)COC(=O)C=CCCN(C)C1=O [compound 19] | 59.9 | 62.4 |
| COc1ccc(CC[C@H]2OC(=O)[C@@H]3CCCCN3C(=O)C(=O)C(C)(C)COC(=O)C=CCCN(C)C(=O)[C@H](CC3CCCCC3)NC(=O)[C@H](C(C)C)N(C)C(=O)[C@@H](Cc3ccccc3)NC(=O)[C@H](CC(C)C)N(C)C(=O)CCC(=O)Nc3cccc2c3)cc1OC [compound 87] | 17.1 | 51.3 |
| COc1cc(CC[C@H]2OC(=O)[C@@H]3CCCCN3C(=O)C(=O)C(C)(C)COC(=O)C=CCCN(C)C(=O)[C@@H]3CCCN3C(=O)[C@H](COC(C)(C)C)N(C)C(=O)C(c3ccccc3)NC(=O)[C@H](C)N(C)C(=O)COc3cccc2c3)cc(OC)c1OC (stereo partly shown) [compound 115] | 8.7 | 47.9 |
| COc1ccc(CC[C@H]2OC(=O)[C@@H]3CCCCN3C(=O)C(=O)C(C)(C)COC(=O)C=CCCN(C)C(=O)[C@@H]3CCCN3C(=O)[C@H](COC(C)(C)C)N(C)C(=O)C(c3ccccc3)NC(=O)[C@H](Cc3ccccc3)N(C)C(=O)COc3cccc2c3)cc1OC (stereo partly shown) [compound 145] | 6.7 | 46.6 |
| COc1ccc(CC[C@H]2OC(=O)[C@@H]3CCCCN3C(=O)C(=O)C(C)(C)COC(=O)C=CCCN(C)C(=O)CNC(=O)[C@H](Cc3ccccc3)N(C)C(=O)[C@@H](C)NC(=O)CN(C)C(=O)COc3cccc2c3)cc1OC [compound 61] | 19.2 | 53.8 |
